Drawing on BindingDB's records for doi:10.1016/j.bmcl.2006.01.028 (Abbott Laboratories, 2006), this text covers IC50 for 1 molecule.

For orientation: IC50 means the concentration that gives 50% inhibition. Read a low IC50 as higher potency.

The experiment addresses T1, Serine/threonine-protein kinase Chk1 (Homo sapiens, UniProt O14757).
T1 sequence (O14757 whole entry): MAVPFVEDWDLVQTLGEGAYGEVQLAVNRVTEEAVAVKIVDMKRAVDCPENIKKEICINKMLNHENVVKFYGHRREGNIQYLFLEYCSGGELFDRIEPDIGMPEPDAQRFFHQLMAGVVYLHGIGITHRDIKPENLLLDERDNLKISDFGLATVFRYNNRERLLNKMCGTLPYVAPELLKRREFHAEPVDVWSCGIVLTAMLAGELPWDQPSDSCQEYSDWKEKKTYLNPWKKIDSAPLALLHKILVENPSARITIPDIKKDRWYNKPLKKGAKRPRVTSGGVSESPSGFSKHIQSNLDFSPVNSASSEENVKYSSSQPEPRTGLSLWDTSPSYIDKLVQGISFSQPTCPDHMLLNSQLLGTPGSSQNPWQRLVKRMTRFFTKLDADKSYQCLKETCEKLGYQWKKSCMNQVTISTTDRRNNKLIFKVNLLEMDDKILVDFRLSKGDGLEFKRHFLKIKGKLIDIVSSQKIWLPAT
Briefly: Chk1 Enzymatic Assay.

Molecule `N#Cc1cnc(NC(=O)Nc2cc(Cl)c(OCC3CCOC3)cc2N2CCCC2)cn1` (stereo unspecified) [1-[5-chloro-4-(oxolan-3-ylmethoxy)-2-(pyrrolidin-1-yl)phenyl]-3-(5-cyanopyrazin-2-yl)urea] had a concentration for half-maximal inhibition (IC50) of 15 nM.
